Measured values reported in ChEMBL document CHEMBL3045920, “Antifeedant activity of some diterpenoids” (1999).

Experiments:
Assay type in all cases: functional
[1] = system: Henosepilachna vigintioctopunctata; assay: Antifeedant activity against adults of Henosepilachna vigintioctopunctata at 0.05 mg/cm'2 after 4 hr
[2] = system: Henosepilachna vigintioctopunctata; assay: Antifeedant activity against adults of Henosepilachna vigintioctopunctata at 0.5 mg/cm'2 after 4 hr
[3] = system: Henosepilachna vigintioctopunctata; assay: Antifeedant activity against adults of Henosepilachna vigintioctopunctata at 5 mg/cm'2 after 4 hr
[4] = system: Henosepilachna vigintioctopunctata; assay: Antifeedant activity against fourth-instar nymphs of Henosepilachna vigintioctopunctata at 0.05 mg/cm'2 after 4 hr
[5] = system: Henosepilachna vigintioctopunctata; assay: Antifeedant activity against fourth-instar nymphs of Henosepilachna vigintioctopunctata at 5 mg/cm'2 after 4 hr
[6] = system: Henosepilachna vigintioctopunctata; assay: Antifeedant activity against fourth-instar nymphs of Henosepilachna vigintioctopunctata at 0.5 mg/cm'2 after 4 hr

Structure (SMILES) | Activity [1] | Activity [2] | Activity [3] | Activity [4] | Activity [5] | Activity [6]
CC(=O)OC[C@@]12C=C[C@@H](C)[C@](C)([C@@H]3C[C@H]4C(OC(C)=O)CO[C@H]4O3)[C@H]1CC[C@H](OC(C)=O)[C@]21CO1 (stereo partly specified) | -20.26% | 22.53% | 23.45% | -18.69% | 1.28% | -1.39%
CC(=O)OC[C@@]12[C@@H](OC(C)=O)C[C@@H](C)[C@](C)([C@@H]3C[C@H]4C=CO[C@H]4O3)[C@H]1CC[C@H](OC(C)=O)[C@]21CO1 [3-EPICARYOPTIN] | 31.07% | 37.02% | 31.93% | 16.12% | 23.56% | 9.37%
CC(=O)OC[C@@]12[C@@H](OC(C)=O)C[C@@H](C)[C@](C)([C@@H]3C[C@@H]4CCO[C@H]4O3)[C@H]1CC[C@H](OC(C)=O)[C@]21CO1 [14,15-DIHYDRO-3-EPICARYOPTIN] | 10.2% | 8.39% | 39.34% | 21.14% | 39.2% | 20.39%
C=C1CC[C@@H]2[C@](C)(CO)[C@H](O)CC[C@@]2(C)[C@@H]1C/C=C1/C(=O)OC[C@H]1O [ANDROGRAPHOLIDE] | -10.95% | 1.04% | 24.26% | -16.76% | 54.06% | -52.38%
CC(=O)OC[C@@]12[C@@H](OC(C)=O)C[C@@H](C)[C@](C)([C@@H]3C[C@H]4C=CO[C@H]4O3)[C@H]1CC[C@@H](OC(C)=O)[C@]21CO1 [CARYOPTIN] | -5.31% | -10.03% | 84.95% | 34.37% | 44.46% | 72.51%
C[C@@]12CCCC(CO)(CO)[C@H]1CC[C@H](CO)[C@H]2CCC1=CCOC1=O [WIGHTIONOLIDE] | 18.42% | 7.15% | -4.1% | -52.79% | -11.72% | -14.03%
